Measured values reported in patent US20240050428A1 (Cullgen (Shanghai), Inc., priority 2020, published 2024).
Like-named read-outs stand apart in the source and are kept apart here.

How the values were obtained:
MOLM-13 cells = assay: Cell viability assay (CellTiter-Glo) in MOLM-13 cells, alone or with gilteritinib; type: cell-based; details: Homo sapiens, MOLM-13 cells, three days, CellTiter-Glo
MV4;11 cells = assay: Cell viability assay (CellTiter-Glo) in MV4;11 cells, alone or with gilteritinib; type: cell-based; details: Homo sapiens, MV4;11 cells, three days, CellTiter-Glo, read-out: MV4
[1] = MOLM-13, 72 h, compound alone (without gilteritinib), read-out: MOLM-13 IC50
[2] = MOLM-13, 72 h, with gilteritinib 20 nM, read-out: MOLM-13 IC50 gilteritinib
[3] = MV4-11, 72 h, compound alone (without gilteritinib), 11 IC50
[4] = MV4-11, 72 h, with gilteritinib 10 nM, 11 IC50 gilteritinib

| Compound | IC50 (MOLM-13 cells; [1]) | IC50 (MOLM-13 cells; [2]) | IC50 (MV4;11 cells; [3]) | IC50 (MV4;11 cells; [4]) | IC50 (MOLM-13 cells; 72 h, compound alone (without gilteritinib), read-out: MOLM-13 IC50) | IC50 (MOLM-13 cells; 72 h, with gilteritinib 20 nM, read-out: MOLM-13 IC50 gilteritinib) | IC50 (MV4;11 cells; 72 h, compound alone (without gilteritinib), 11 IC50) | IC50 (MV4;11 cells; 72 h, with gilteritinib 10 nM, 11 IC50 gilteritinib) |
| --- | --- | --- | --- | --- | --- | --- | --- | --- |
| CN(c1ccccn1)C1CCN(CC(=O)NCCNc2ccc3c(c2)C(=O)N(C2CCC(=O)NC2=O)C3=O)CC1 (centres unmarked) [GS-321, N-(2-((2-(2,6-Dioxopiperidin-3-yl)-1,3-dioxoisoindolin-5-yl)amino)ethyl)-2-(4-(methyl(pyridin-2-yl)amino)piperidin-1-yl)acetamide] | > 1 µM | 0.1 to 1 µM | > 1 µM | > 1 µM |  |  |  |  |
| CN(c1ccc2[nH]ccc2n1)C1CCN(CC(=O)NCCNc2ccc3c(c2)C(=O)N(C2CCC(=O)NC2=O)C3=O)CC1 (centres unmarked) [GS-322, N-(2-((2-(2,6-Dioxopiperidin-3-yl)-1,3-dioxoisoindolin-5-yl)amino)ethyl)-2-(4-(methyl(1H-pyrrolo[3,2-b]pyridin-5-yl)amino)piperidin-1-yl)acetamide] | > 1 µM | > 1 µM | > 1 µM | > 1 µM |  |  |  |  |
| O=C1CCC(N2C(=O)c3ccc(NCCOCCC(=O)N4CCC(n5cc(-c6cnc7ccccc7n6)cn5)CC4)cc3C2=O)C(=O)N1 (centres unmarked) [GS-324, 2-(2,6-Dioxopiperidin-3-yl)-5-((2-(3-oxo-3-(4-(4-(quinoxalin-2-yl)-1H-pyrazol-1-yl)piperidin-1-yl)propoxy)ethyl)amino)isoindoline-1,3-dione] | > 1 µM | 0.01 to 0.1 µM | > 1 µM | 0.1 to 1 µM |  |  |  |  |
| O=C1CCC(N2C(=O)c3ccc(NC(=O)CCCC(=O)N4CCC(n5cc(-c6cnc7ccccc7n6)cn5)CC4)cc3C2=O)C(=O)N1 (centres unmarked) [GS-327, N-(2-(2,6-Dioxopiperidin-3-yl)-1,3-dioxoisoindolin-5-yl)-5-oxo-5-(4-(4-(quinoxalin-2-yl)-1H-pyrazol-1-yl)piperidin-1-yl)pentanamide] | > 1 µM | > 1 µM | > 1 µM | 0.1 to 1 µM |  |  |  |  |
| O=C1CCC(N2C(=O)c3ccc(NCCC[C@H]4C[C@H](n5cc(-c6cc(Cl)ccn6)cn5)C4)cc3C2=O)C(=O)N1 (stereo partly drawn) [GS-328, 5-((3-(trans-3-(4-(4-Chloropyridin-2-yl)-1H-pyrazol-1-yl)cyclobutyl)propyl)amino)-2-(2,6-dioxopiperidin-3-yl)isoindoline-1,3-dione] | > 1 µM | 0.01 to 0.1 µM | 0.1 to 1 µM | 0.01 to 0.1 µM |  |  |  |  |
| O=C1CCC(N2Cc3cc(OCCCCCC(=O)N4CCN(c5ccccc5)CC4)ccc3C2=O)C(=O)N1 (centres unmarked) [GS-329, 3-(1-Oxo-5-((6-oxo-6-(4-phenylpiperazin-1-yl)hexyl)oxy)isoindolin-2-yl)piperidine-2,6-dione] |  |  |  |  | > 1 µM | 0.1 to 1 µM | > 1 µM | > 1 µM |
| O=C1CCC(N2C(=O)c3ccc(NC(=O)COCCC(=O)N4CCC(n5cc(-c6cnc7ccccc7n6)cn5)CC4)cc3C2=O)C(=O)N1 (centres unmarked) [GS-330, N-(2-(2,6-Dioxopiperidin-3-yl)-1,3-dioxoisoindolin-5-yl)-2-(3-oxo-3-(4-(4-(quinoxalin-2-yl)-1H-pyrazol-1-yl)piperidin-1-yl)propoxy)acetamide] | > 1 µM | > 1 µM | > 1 µM | > 1 µM |  |  |  |  |
| O=C(CN1CCC(N2CCN(c3ccccn3)CC2)C1)NCc1ccc2c(c1)C(=O)N(C1CCC(=O)NC1=O)C2=O (centres unmarked) [GS-332, N-((2-(2,6-Dioxopiperidin-3-yl)-1,3-dioxoisoindolin-5-yl)methyl)-2-(3-(4-(pyridin-2-yl)piperazin-1-yl)pyrrolidin-1-yl)acetamide] | > 1 µM | > 1 µM | > 1 µM | > 1 µM |  |  |  |  |
| O=C1CCC(N2C(=O)c3ccc(NCCCCCCN4CCC(C5CCC(O)CC5)CC4)cc3C2=O)C(=O)N1 (centres unmarked) [GS-335, 2-(2,6-Dioxopiperidin-3-yl)-5-((6-(4-(4-hydroxycyclohexyl)piperidin-1-yl)hexyl)amino)isoindoline-1,3-dione] | > 1 µM | 0.1 to 1 µM | > 1 µM | > 1 µM |  |  |  |  |
| O=C1CCC(N2C(=O)c3ccc(NCCCCCCn4cc(-c5cnc6ccccc6n5)cn4)cc3C2=O)C(=O)N1 (centres unmarked) [GS-339, 2-(2,6-Dioxopiperidin-3-yl)-5-((6-(4-(quinoxalin-2-yl)-1H-pyrazol-1-yl)hexyl)amino)isoindoline-1,3-dione] | > 1 µM | 0.01 to 0.1 µM | 0.1 to 1 µM | < 0.01 µM |  |  |  |  |
| O=C1CCC(N2C(=O)c3ccc(CNC(=O)C(F)(F)c4cccc(-n5cc(-c6cnc7ccccc7n6)cn5)c4)cc3C2=O)C(=O)N1 (centres unmarked) [GS-340, N-((2-(2,6-Dioxopiperidin-3-yl)-1,3-dioxoisoindolin-5-yl)methyl)-2,2-difluoro-2-(3-(4-(quinoxalin-2-yl)-1H-pyrazol-1-yl)phenyl)acetamide] | > 1 µM | > 1 µM | 0.1 to 1 µM | > 1 µM |  |  |  |  |
| COc1ccnc(-c2cnn([C@H]3C[C@H](CCCNc4ccc5c(c4)C(=O)N(C4CCC(=O)NC4=O)C5=O)C3)c2)c1 (stereo partly drawn) [GS-341, 2-(2,6-Dioxopiperidin-3-yl)-5-((3-(trans-3-(4-(4-methoxypyridin-2-yl)-1H-pyrazol-1-yl)cyclobutyl)propyl)amino)isoindoline-1,3-dione] | 0.1 to 1 µM | 0.01 to 0.1 µM | 0.01 to 0.1 µM | < 0.01 µM |  |  |  |  |
| O=C1CCC(N2C(=O)c3ccc(NC(=O)COCC(=O)N4CCC(n5cc(-c6cnc7ccccc7n6)cn5)CC4)cc3C2=O)C(=O)N1 (centres unmarked) [GS-342, N-(2-(2,6-Dioxopiperidin-3-yl)-1,3-dioxoisoindolin-5-yl)-2-(2-oxo-2-(4-(4-(quinoxalin-2-yl)-1H-pyrazol-1-yl)piperidin-1-yl)ethoxy)acetamide] | > 1 µM | > 1 µM | > 1 µM | > 1 µM |  |  |  |  |
| O=C1CCC(N2C(=O)c3ccc(NCCCN4CCC(n5cc(-c6cnc7ccccc7n6)cn5)CC4)cc3C2=O)C(=O)N1 (centres unmarked) [GS-343] | 0.1 to 1 µM | 0.01 to 0.1 µM | > 1 µM | > 1 µM |  |  |  |  |
| O=C1CCC(N2C(=O)c3ccc(NCCCN4CCC(N5CCN(c6ccccn6)CC5)C4)cc3C2=O)C(=O)N1 (centres unmarked) [GS-344, 2-(2,6-Dioxopiperidin-3-yl)-5-((3-(3-(4-(pyridin-2-yl)piperazin-1-yl)pyrrolidin-1-yl)propyl)amino)isoindoline-1,3-dione] | > 1 µM | > 1 µM | > 1 µM | > 1 µM |  |  |  |  |

The next lines start with results.

| IC50 (MOLM-13 cells; [1]) | IC50 (MOLM-13 cells; [2]) | IC50 (MV4;11 cells; [3]) | IC50 (MV4;11 cells; [4]) | Compound | IC50 (MOLM-13 cells; 72 h, compound alone (without gilteritinib), read-out: MOLM-13 IC50) | IC50 (MOLM-13 cells; 72 h, with gilteritinib 20 nM, read-out: MOLM-13 IC50 gilteritinib) | IC50 (MV4;11 cells; 72 h, compound alone (without gilteritinib), 11 IC50) | IC50 (MV4;11 cells; 72 h, with gilteritinib 10 nM, 11 IC50 gilteritinib) |
| --- | --- | --- | --- | --- | --- | --- | --- | --- |
| > 1 µM | < 0.01 µM | 0.1 to 1 µM | < 0.01 µM | O=C1CCC(N2C(=O)c3ccc(NCCCCC(=O)N4CCC(n5cc(-c6cnc7ccccc7n6)cn5)CC4)cc3C2=O)C(=O)N1 (centres unmarked) [GS-323, 2-(2,6-Dioxopiperidin-3-yl)-5-((5-oxo-5-(4-(4-(quinoxalin-2-yl)-1H-pyrazol-1-yl)piperidin-1-yl)pentyl)amino)isoindoline-1,3-dione] |  |  |  |  |
| > 1 µM | 0.1 to 1 µM | > 1 µM | 0.1 to 1 µM | O=C1CCC(N2C(=O)c3ccc(NC(=O)CCCCC(=O)N4CCC(n5cc(-c6cnc7ccccc7n6)cn5)CC4)cc3C2=O)C(=O)N1 (centres unmarked) [GS-325, N-(2-(2,6-Dioxopiperidin-3-yl)-1,3-dioxoisoindolin-5-yl)-6-oxo-6-(4-(4-(quinoxalin-2-yl)-1H-pyrazol-1-yl)piperidin-1-yl)hexanamide] |  |  |  |  |
| > 1 µM | 0.1 to 1 µM | > 1 µM | > 1 µM | O=C1CCC(N2C(=O)c3ccc(NCCCCCCN4CCC(n5cc(-c6cnc7ccccc7n6)cn5)CC4)cc3C2=O)C(=O)N1 (centres unmarked) [GS-326, 2-(2,6-Dioxopiperidin-3-yl)-5-((6-(4-(4-(quinoxalin-2-yl)-1H-pyrazol-1-yl)piperidin-1-yl)hexyl)amino)isoindoline-1,3-dione] |  |  |  |  |
| > 1 µM | 0.1 to 1 µM | > 1 µM | > 1 µM | O=C1CCC(N2C(=O)c3ccc(NCCCCCCN4CCC(O)CC4)cc3C2=O)C(=O)N1 (centres unmarked) [GS-331, 2-(2,6-Dioxopiperidin-3-yl)-5-((6-(4-hydroxypiperidin-1-yl)hexyl)amino)isoindoline-1,3-dione] |  |  |  |  |
| > 1 µM | 0.1 to 1 µM | > 1 µM | 0.1 to 1 µM | O=C1CCC(N2C(=O)c3ccc(NCCCCCC(=O)N4CCC(O)(c5ccccc5)CC4)cc3C2=O)C(=O)N1 (centres unmarked) [GS-333, 2-(2,6-Dioxopiperidin-3-yl)-5-((6-(4-hydroxy-4-phenylpiperidin-1-yl)-6-oxohexyl)amino)isoindoline-1,3-dione] |  |  |  |  |
| > 1 µM | 0.1 to 1 µM | > 1 µM | > 1 µM | O=C1CCC(N2C(=O)c3ccc(NCCCCCC(=O)N4CC(Oc5ccccc5)C4)cc3C2=O)C(=O)N1 (centres unmarked) [GS-334, 2-(2,6-Dioxopiperidin-3-yl)-5-((6-oxo-6-(3-phenoxyazetidin-1-yl)hexyl)amino)isoindoline-1,3-dione] |  |  |  |  |
| > 1 µM | > 1 µM | > 1 µM | > 1 µM | O=C1CCC(N2C(=O)c3ccc(NCCCCCC(=O)N4CC(Nc5ccccc5)C4)cc3C2=O)C(=O)N1 (centres unmarked) [GS-336, 2-(2,6-Dioxopiperidin-3-yl)-5-((6-oxo-6-(3-(phenylamino)azetidin-1-yl)hexyl)amino)isoindoline-1,3-dione] |  |  |  |  |
| > 1 µM | 0.1 to 1 µM | > 1 µM | > 1 µM | CN(c1ccccc1)C1CN(C(=O)CCCCCNc2ccc3c(c2)C(=O)N(C2CCC(=O)NC2=O)C3=O)C1 (centres unmarked) [GS-337, 2-(2,6-Dioxopiperidin-3-yl)-5-((6-(3-(methyl(phenyl)amino)azetidin-1-yl)-6-oxohexyl)amino)isoindoline-1,3-dione] |  |  |  |  |
